Key:
Format in all cases: in vivo
Monochoria vaginalis [1] = experiment: Test Example 2: herbicidal activity, application during weed generation in submerged conditions (symbol C); details: Table 23; application herbicide amount 320 g/ha; grade 0-5 by criteria of Test Example 1
Outline: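 Seeds sown in flooded alluvial soil (4 cm water) were grown in a 25-30° C greenhouse. At the one- to two-leaf stage, diluted emulsion of compound was applied to the water surface at a predetermined rate. Effect was scored 3 weeks later.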

Leptochloa chinensis = experiment: Test Example 3: herbicidal effect by foliage application, Wagner pot (symbol D); details: application herbicide amount 320 g/ha; for D (Leptochloa chinensis) herbicidal effect grade: Table 24
Outline: (§1)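 Plants sown in submerged alluvial soil (water depth 0.1–0.5 cm) in a 25–30 °C greenhouse and grown 14 days. An emulsion of the compound diluted in water to a set herbicide amount was sprayed uniformly on foliage. Effect on each plant scored 3 weeks after application.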

corn = experiment: Test Example 5: effect on crop by foliage application, plastic box (symbol c); details: 320 g/ha, 3 weeks after application
Outline: (§2)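 Crop and weed seeds sown in spots in sterilized diluvial soil in plastic boxes and covered with about 1.5 cm soil. Plants raised in a greenhouse at 25° C. to 30° C. for foliar application.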

soybean = experiment: Test Example 5: effect on crop by foliage application, plastic box (symbol d); details: 320 g/ha, 3 weeks after application
Outline: as §2

Chenopodium album = experiment: Test Example 4: herbicidal effect by soil treatment (symbol O); details: application herbicide amount 320 g/ha
Outline: (§3)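 Seeds were sown in sterilized diluvial soil, covered with about 1.5 cm of soil, and the soil surface was sprayed with a water-diluted emulsion of the compound at a predetermined rate. Plants grew in a greenhouse at 25° C. to 30° C.; effects were scored visually 3 weeks after application.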

[2] = test system: Echinochloa crus-galli var. crus-galli; experiment: Test Example 3: herbicidal effect by foliage application, Wagner pot (symbol H); details: application herbicide amount 320 g/ha; for H (Echinochloa crus-galli var. crus-galli) herbicidal effect grade: Table 24
Outline: as §1

Avena fatua = experiment: Test Example 4: herbicidal effect by soil treatment (symbol I); details: application herbicide amount 320 g/ha
Outline: as §3

Abutilon theophrasti = experiment: Test Example 4: herbicidal effect by soil treatment (symbol M); details: application herbicide amount 320 g/ha
Outline: as §3

rapeseed = experiment: Test Example 5: effect on crop by foliage application, plastic box (symbol g); details: 320 g/ha, 3 weeks after application
Outline: as §2

Lolium multiflorum Lam. = experiment: Test Example 5: herbicidal effect by foliage application, plastic box (symbol K); details: 320 g/ha, 3 weeks after application
Outline: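 Leaf-applied emulsion, water-diluted to a preset herbicide dose, on two-week-old seedlings raised in a 25° C. to 30° C. greenhouse; injury rated at 3 weeks using earlier criteria.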

Monochoria vaginalis [3] = experiment: Test Example 1: herbicidal activity, application before weed generation in submerged conditions (symbol C); details: application herbicide amount 320 g/ha
Outline: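 Greenhouse growth at 25–30 °C lasted 3 weeks after treatment, when each weed was graded 0–5 by herbicidal ratio. Treatment was a diluted emulsion applied to the water surface of 4 cm-submerged alluvial soil on the sowing day.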

| SMILES | Herbicidal effect grade, C: Monochoria vaginalis (Monochoria vaginalis [1]) | D (Leptochloa chinensis) herbicidal effect grade (Leptochloa chinensis) | c: corn, effect on crop grade (corn) | d: soybean, effect on crop grade (soybean) | O: Chenopodium album, herbicidal effect grade (Chenopodium album) | H (Echinochloa crus-galli var. crus-galli) herbicidal effect grade [2] | I: Avena fatua, herbicidal effect grade (Avena fatua) | M: Abutilon theophrasti, herbicidal effect grade (Abutilon theophrasti) | g: rapeseed, effect on crop grade (rapeseed) | K: Lolium multiflorum Lam., herbicidal effect grade (Lolium multiflorum Lam.) | C (Monochoria vaginalis) herbicidal effect grade (Monochoria vaginalis [3]) | Herbicidal effect grade, O: Chenopodium album (Chenopodium album) | Herbicidal effect grade, I: Avena fatua (Avena fatua) | Herbicidal effect grade, M: Abutilon theophrasti (Abutilon theophrasti) | herbicidal effect on D (Leptochloa chinensis), grade 0-5 (Leptochloa chinensis) | O (Chenopodium album) herbicidal effect grade (Chenopodium album) | herbicidal effect on H (Echinochloa crus-galli var. crus-galli), grade 0-5 [2] | I (Avena fatua) herbicidal effect grade (Avena fatua) | M (Abutilon theophrasti) herbicidal effect grade (Abutilon theophrasti) | Herbicidal effect grade, C: Monochoria vaginalis (Monochoria vaginalis [3]) |
| --- | --- | --- | --- | --- | --- | --- | --- | --- | --- | --- | --- | --- | --- | --- | --- | --- | --- | --- | --- | --- |
| CCC(CC1CC(O)=C(c2c(C)cc(-c3ccccc3)cc2OC)C1=O)=NOC (mixture of isomers) [13-004] | 4 (Herbicidal ratio of 70% or higher and lower than 90%) | 5 (Herbicidal ratio of 90% or more (almost completely withered)) | 5 (Herbicidal ratio of 90% or more (almost completely withered)) | 1 (Herbicidal ratio of 5% or higher and lower than 20%) | 0 (Herbicidal ratio of 5% or lower (almost no effect)) | 5 (Herbicidal ratio of 90% or more (almost completely withered)) | 3 (Herbicidal ratio of 40% or higher and lower than 70%) | 0 (Herbicidal ratio of 5% or lower (almost no effect)) | 4 (Herbicidal ratio of 70% or higher and lower than 90%) | 5 (Herbicidal ratio of 90% or more (almost completely withered)) | 5 (Herbicidal ratio of 90% or more (almost completely withered)) | – | – | – | – | – | – | – | – | – |
| Cc1cc(Br)cc(C)c1C1=C(O)CC(CC(=O)C(C)C)C1=O (racemic) [10-003] | 0 (Herbicidal ratio of 5% or lower (almost no effect)) | 4 (Herbicidal ratio of 70% or higher and lower than 90%) | 2 (Herbicidal ratio of 20% or higher and lower than 40%) | 0 (Herbicidal ratio of 5% or lower (almost no effect)) | – | 5 (Herbicidal ratio of 90% or more (almost completely withered)) | – | – | 0 (Herbicidal ratio of 5% or lower (almost no effect)) | 4 (Herbicidal ratio of 70% or higher and lower than 90%) | 0 (Herbicidal ratio of 5% or lower (almost no effect)) | 0 (Herbicidal ratio of 5% or lower (almost no effect)) | 0 (Herbicidal ratio of 5% or lower (almost no effect)) | 0 (Herbicidal ratio of 5% or lower (almost no effect)) | – | – | – | – | – | – |
| Cc1cc(Br)cc(C)c1C1=C(O)CC(CC(=O)C2CC2)C1=O (racemic) [10-004] | 0 (Herbicidal ratio of 5% or lower (almost no effect)) | 5 (Herbicidal ratio of 90% or more (almost completely withered)) | 5 (Herbicidal ratio of 90% or more (almost completely withered)) | 0 (Herbicidal ratio of 5% or lower (almost no effect)) | – | 5 (Herbicidal ratio of 90% or more (almost completely withered)) | – | – | 4 (Herbicidal ratio of 70% or higher and lower than 90%) | 5 (Herbicidal ratio of 90% or more (almost completely withered)) | 0 (Herbicidal ratio of 5% or lower (almost no effect)) | 0 (Herbicidal ratio of 5% or lower (almost no effect)) | 3 (Herbicidal ratio of 40% or higher and lower than 70%) | 0 (Herbicidal ratio of 5% or lower (almost no effect)) | – | – | – | – | – | – |
| COc1cc(Br)cc(C)c1C1=C(O)CC(CC(=O)C2CC2)C1=O (racemic) [14-001] | 1 (Herbicidal ratio of 5% or higher and lower than 20%) | 5 (Herbicidal ratio of 90% or more (almost completely withered)) | 5 (Herbicidal ratio of 90% or more (almost completely withered)) | 2 (Herbicidal ratio of 20% or higher and lower than 40%) | 0 (Herbicidal ratio of 5% or lower (almost no effect)) | 5 (Herbicidal ratio of 90% or more (almost completely withered)) | 5 (Herbicidal ratio of 90% or more (almost completely withered)) | 0 (Herbicidal ratio of 5% or lower (almost no effect)) | 4 (Herbicidal ratio of 70% or higher and lower than 90%) | 5 (Herbicidal ratio of 90% or more (almost completely withered)) | 3 (Herbicidal ratio of 40% or higher and lower than 70%) | – | – | – | – | – | – | – | – | – |
| CCC(=O)CC1CC(O)=C(c2c(C)cc(Br)cc2OC)C1=O (racemic) [14-002] | 0 (Herbicidal ratio of 5% or lower (almost no effect)) | 5 (Herbicidal ratio of 90% or more (almost completely withered)) | 5 (Herbicidal ratio of 90% or more (almost completely withered)) | 1 (Herbicidal ratio of 5% or higher and lower than 20%) | 0 (Herbicidal ratio of 5% or lower (almost no effect)) | 5 (Herbicidal ratio of 90% or more (almost completely withered)) | 0 (Herbicidal ratio of 5% or lower (almost no effect)) | 0 (Herbicidal ratio of 5% or lower (almost no effect)) | 4 (Herbicidal ratio of 70% or higher and lower than 90%) | 5 (Herbicidal ratio of 90% or more (almost completely withered)) | 2 (Herbicidal ratio of 20% or higher and lower than 40%) | – | – | – | – | – | – | – | – | – |
| CON=C(C)CC1CC(OC(=O)C(C)(C)C)=C(c2c(C)cc(C)cc2C)C1=O (stereo not drawn) [1-004, 2-mesityl-4-{2-(methoxyimino)propyl}-3-oxocyclopent-1-en-1-yl pivalate] | 4 (Herbicidal ratio of 70% or higher and lower than 90%) | – | 5 (Herbicidal ratio of 90% or more (almost completely withered)) | 4 (Herbicidal ratio of 70% or higher and lower than 90%) | – | – | – | – | 4 (Herbicidal ratio of 70% or higher and lower than 90%) | 5 (Herbicidal ratio of 90% or more (almost completely withered)) | – | – | – | – | 5 (Herbicidal ratio of 90% or more (almost completely withered)) | 0 (Herbicidal ratio of 5% or lower (almost no effect)) | 5 (Herbicidal ratio of 90% or more (almost completely withered)) | 5 (Herbicidal ratio of 90% or more (almost completely withered)) | 5 (Herbicidal ratio of 90% or more (almost completely withered)) | 4 (Herbicidal ratio of 70% or higher and lower than 90%) |

Reference: patent US11000033B2, “Ketone or oxime compound, and herbicide” (NISSAN CHEMICAL CORPORATION, priority 2014, dated 2021)
